The record followed here is paper PMC11033495 (Pharmacology Research & Perspectives, 2024).

Data set [1] relates to CYP3A4. The data set can be described thus: Inhibition of TRZ hydroxylation by KCZ in pooled liver microsomes. In kind it is biochemical, hCYP3A mice. To be noted: 0.01, 0.1 and 1 μM KCZ; pooled liver microsomes of ND and HCD mice. Background: Liver microsomes are a subcellular fraction often used to study metabolism.
Data set [2] relates to CYP3A4. The data set can be described thus: In vivo DDI study: KCZ pretreatment before oral TRZ in mice fed ND or HCD. More on the design: species or system hCYP3A mice. To be noted: for Percentage of decline in AUCRα-OH: 40 mg/kg KCZ oral 15 min before oral TRZ 1 mg/kg, versus vehicle.
For data set [3], the system named is CYP3A4. The data set can be described thus: Plasma 4β-OH cholesterol as biomarker of CYP3A4 activity in mice fed ND or HCD. In kind it is in vivo. To be noted: hCYP3A mice.
The format of data set [4] is in vivo, hCYP3A mice. To be noted: mean ± SD, n = 4.
Data set [5] has as its system CYP3A4. Format: in vivo. To be noted: oral TRZ 1 mg/kg; hCYP3A mice fed HCD versus ND.
Setting [6] is: both ND and HCD mice, 40 mg/kg KCZ oral, TRZ 1 mg/kg oral.
The mark [7] stands for this setting: hCYP3A mice fed CA-diet (CE-2 + 0.5% CA) for 1 week.
The mark [8] stands for this setting: hCYP3A mice fed ND (CE-2) for 1 week.

Each structure is given as a SMILES string. Read-outs that look alike come from different tables or passages of the source.

Take `CC(=O)N1CCN(c2ccc(OCC3COC(Cn4ccnc4)(c4ccc(Cl)cc4Cl)O3)cc2)CC1` (stereo not drawn) [KCZ, ketoconazole]: in the data set on CYP3A4 [1], the “Effect on microsomal activity of TRZ hydroxylation in liver” value is listed as “inhibited”. The “Percentage of decline in AUCRα-OH” value in the data set on CYP3A4 [2] (HCD mice) came out at 46%. Further, the “Percentage of decline in AUCRα-OH” value in the data set with CYP3A4 [2] (ND mice) is given as 49%. Further, in the data set with CYP3A4 [2] (setting [6]), the “Effect of pretreatment on plasma concentrations of TRZ” value is on record as “tended to increase” and the “Effect of pretreatment on plasma concentrations of α-OH TRZ” value is reported as “decrease”.
On to `CC(C)CCC[C@@H](C)[C@H]1CC[C@H]2[C@@H]3CC=C4[C@@H](O)[C@@H](O)CC[C@]4(C)[C@H]3CC[C@]12C` [4β‐OH cholesterol, 4β‐Hydroxy (4β‐OH) cholesterol], for which the “Plasma concentration ratio (4β-OH cholesterol/cholesterol), HCD versus ND” value in the data set on CYP3A4 [3] is “not significantly different”. Further, the “Plasma level in mice fed HCD compared with mice fed ND” value with CYP3A4 [3] (HCD versus ND) was “significantly higher”. Further, the “Increase of plasma level by HCD” value in the data set on CYP3A4 [3] (HCD versus ND, Figure S4A) is listed as “about twofold”.
On to `C[C@H](CCC(=O)O)[C@H]1CC[C@H]2[C@@H]3[C@H](O)C[C@@H]4C[C@H](O)CC[C@]4(C)[C@H]3C[C@H](O)[C@]12C` [CA, cholic acid], for which the figures for the Plasma concentration in data set [4] (setting [7]) and in data set [4] (setting [8]) were 1.35 ± 1.869 µg/mL and 0.312 ± 0.243 µg/mL, respectively.
As to `Cc1nnc2n1-c1ccc(Cl)cc1C(c1ccccc1Cl)=NC2` [TRZ, triazolam, reference compound], in the data set with CYP3A4 [5], the “Plasma concentrations and AUC values in HCD mice compared with ND mice” value is “lower”.
`Cc1nnc2n1-c1ccc(Cl)cc1C(c1ccccc1Cl)=NC2O` (stereo not drawn) [4‐OH TRZ, 4‐hydroxy triazolam]: in the data set with CYP3A4 [5], the “Plasma concentrations and AUC values in HCD mice compared with ND mice” value is given as “lower”.
For `CC(C)CCC[C@@H](C)[C@H]1CC[C@H]2[C@@H]3CC=C4C[C@@H](O)CC[C@]4(C)[C@H]3CC[C@]12C` [Cholesterol, cholesterol], the results for the Plasma concentration in data set [4] (setting [7]) and in data set [4] (setting [8]) were 2250 ± 336 µg/mL and 1361 ± 152 µg/mL, respectively.
As for `OCc1nnc2n1-c1ccc(Cl)cc1C(c1ccccc1Cl)=NC2` [α‐OH TRZ, α‐hydroxy triazolam], in the data set on CYP3A4 [5], the “Plasma concentrations and AUC values in HCD mice compared with ND mice” value is given as “lower”.
